According to patent publication US20240182422A1, “PREPARATION METHOD OF QUINOLINE DERIVATIVE COMPOUNDS” (ABIVAX, priority 2021, published 2024):

Columns and labels:
[1] = Particle size distribution measurement (WET method, laser diffraction, Mastersizer); assay type: physicochemical; details: PSD wet method, dispersant demineralised water, Triton X100
Excerpt: Particle size distribution (PSD), summarized by D10, D50 and D90 values, were obtained by using the WET method, the details of which are as follows: • Material used: • Equipment: Mastersizer 300 (hydro MV) • Dispersant: demineralised water • Surfactant: Triton X100 • No saturation • Operational parameters: • optical model: Particles type (MS3000 only) no-spherical • Mie: • refractive index of particles: 1.443 • absorption index of particles: 0.1 • refractive index of the dispersant: 1.33 • Measurement: • Measurement time: 10 seconds • Measurement time of the background: 10 seconds • Stirrer speed: 1200 rpm +/−400 • Obscuration range: 5-19% • Delay time measurement: 1-5 minutes • Model: standard • Analysis precision: normal • Sample preparation: • Weight about 100 mg of product in a glass beaker • Add 2-4 drops of surfactant • Complete with the dispersant until the 20 mL mark of the 50 mL graduated beaker • Shake for 3 seconds to 60 seconds • Put in the external ultrasound cell • Sonication duration: 2-3minutes
After the milling step 5, the milled sample thus obtained from example 4 was characterized by measurement of its particle size distribution (see table 3 below) according to the method as defined above.
For comparison purposes, the measurement of the particle size distribution has also been carried out for the native 8-chloro-N-(4-(trifluoromethoxy)phenyl)quinolin-2-amine (Form I) obtained from step 4 of example 4 above (i.e. product obtained from example 4 before milling).

[2] = USP <711> / Ph. Eur. 2.9.3 pharmacopeial dissolution profile (apparent dissolution test, paddle apparatus); assay type: physicochemical; details: for solubility (percentage dissolved) at 45 min: 50 mg drug substance, 900 mL 0.25% CTAB in 0.1 M HCl, paddle USP type II 100 rpm
Experimental: Pharmacopeial (USP <711>, Ph. Eur. 2.9.3) dissolution profiles of the drug substance were established.
A dissolution experiment evaluates the rate and extent that a compound forms a solution under carefully controlled conditions and using paddle dissolution apparatus fulfilling USP <711>, Ph. Eur. 2.9.3 requirements.
The dissolution profiles of 50 mg from a native ABX464 and one milled ABX 464 (8000 rpm) drug substance (DS) in the dissolution media have been compared.
The dissolution conditions and materials were as follows: • Equipment • Class A glassware • Analytical scale • Automatic pipette • UPLC system consisting of a binary or quaternary pump, an automated injector, a thermostated column oven, and a UV or DAD detector controlled by the Waters Empower® software • AT 7 smart (Sotax) or equivalent dissolution apparatus with USP type II paddle • Chemicals • water (dissolution medium) Demineralized water purified by Milli_Q Millipore (type II) • Demineralized water purified by Milli_Q Millipore • syringe filter Spartan 30 mm HPLC-Certified syringe Filter, 0.2 μm, RC (regenerated cellulose) • Acetonitrile Biosolve (UPLC grade) (ACN) • Cetyl trimethylammonium bromide (CTAB) • Hydrochloric acid (HCl) 1M (AVS tritinorm) • Formic acid (LCMS grade) • Chromatographic conditions • Column: Acquity UPLC BEH C18, 2.1 mm ID*50 mm, 1.7 μm pore size or equivalent • Mobile phase A: 0.1% (v/v) Formic acid in water • Mobile phase B: ACN • Isocratic mode 35% A/65% B • Flow rate 0.3 mL/min • Analytical run time: 5 min • Volume injection: 5 μL • Detection: UV at 220 nm • Autosampler: room temperature • Column temperature: 40° C. • Needle wash: Water/ACN (50/50 v/v) • Diluent • Dissolution medium: 0.25% CTAB in 0.1 M HCl. Transfer 25 g of CTAB into a 10 000 mL volumetric flask, add 1 000 mL of HCl 1M and dilute to volume with water (different amounts and volumes may be used as long as the final concentration remains the same) • Solutions
Accurately weight 22.2 mg of the drug substance into a 100 mL volumetric flask, dissolve in about 5 mL ACN and dilute to volume with diluent. • Dissolution conditions • Dissolution medium: 0.25% CTAB in 0.1 M HCl • Temperature: 37° C. +/−0.5° C. • Agitation: 100 rpm +/−1 rpm • Type of agitation: Paddle (USP type II) • Volume of dissolution medium: 900 mL • Sampling time: 5, 10, 15, 30, 45, 60, 75 and 90 min • Sampling volume 5 ml (discard the first 3 ml) • Test on 6 vessels • place the sample (50 mg) into each dissolution vessel
The non-corrected dissolved percentages were calculated as follows: […]
The corrected dissolved percentage were calculated as follows: […]

[3] = listed as Native (not milled) compound

Particle size distribution D10 [1] | Particle size distribution D50 [1] | Particle size distribution D90 [1] | Particle size distribution D10 ([1]; listed as milled ABX464) | Particle size distribution D50 ([1]; listed as milled ABX464) | Particle size distribution D90 ([1]; listed as milled ABX464) | solubility (percentage dissolved) at 45 min ([2]; 37° C., 45 min) | solubility compared to the native compound (FIG. 2 dissolution profile) ([2]; milled at 8000 rpm vs native, 0.25% CTAB in 0.1 M HCl, 37° C.) | increase of solubility (percentage dissolved) of milled compound compared to the native compound at 45 min ([2]; same dissolution conditions, 45 min, milled (8000 rpm) vs native) | Particle size distribution D10 [1, 3] | Particle size distribution D50 [1, 3] | Particle size distribution D90 [1, 3] | SMILES
6.8 μm | 50.0 μm | 122.0 μm | 6.8 μm | 50.0 μm | 122.0 μm | 95.4% | improved solubility | about 38.1% |  |  |  | FC(F)(F)Oc1ccc(Nc2ccc3cccc(Cl)c3n2)cc1 [milled compound, 8-chloro-N-(4-(trifluoromethoxy)phenyl)quinolin-2-amine]
 |  |  |  |  |  | 57.3% |  |  | 24.5 μm | 164.0 μm | 444.0 μm | FC(F)(F)Oc1ccc(Nc2ccc3cccc(Cl)c3n2)cc1 [native compound, 8-chloro-N-(4-(trifluoromethoxy)phenyl)quinolin-2-amine]
